# According to ChEMBL document CHEMBL1151144, “Annonaceous acetogenins: a review” (J Nat Prod, 1990):
# How the values were obtained:
# A549 = experiment: Cytotoxicity against human A549 cells; format: functional; details: for EC50: Homo sapiens, A549, read-out: ED50 (the source's name)
# [1] = Cytotoxicity against mouse 9PS cells; format: functional; details: for EC50: Mus musculus, read-out: ED50 (the source's name)
# HT-29 = experiment: Cytotoxicity against human HT-29 cells; format: functional; details: for EC50: Homo sapiens, HT-29, read-out: ED50 (the source's name)
# Calliphora vicina [2] = experiment: Pesticidal activity against Blowfly larvae assessed as mortality at 10000 ppm; format: functional
# [3] = Cytotoxicity against human 9KB cells; format: functional; details: for EC50: Homo sapiens, 9KB, read-out: ED50 (the source's name)
# [4] = tested on: Agrobacterium tumefaciens; experiment: Antitumor activity assessed as inhibition of Agrobacterium tumefaciens-induced tumor formation by potato disk assay; format: functional
# Artemia = experiment: Toxicity against brine shrimp; format: organism-based; details: in vivo
# Plasmodium falciparum [5] = experiment: Antiplasmodial activity against chloroquine-sensitive Plasmodium falciparum W2; format: functional, organism-based
# Plasmodium falciparum [6] = experiment: Antiplasmodial activity against chloroquine-sensitive Plasmodium falciparum D6; format: functional, organism-based
# [7] = Antimitotic activity in rat 9ASK cells assessed as reversal of astrocyte formation; format: functional
# [8] = Antimitotic activity in rat 9ASK cells assessed as reversal of astrocyte formation at 100 ug/mL; format: functional
# [9] = (§1) In vivo antitumor activity against mouse 3PS cells at 0.95 mg/kg relative to control; format: functional
# Calliphora vicina [10] = experiment: Pesticidal activity against Blowfly larvae assessed as mortality at 1% drug concentration; format: functional
# Aedes aegypti = experiment: Pesticidal activity against Aedes aegypti larvae assessed as mortality at 10 ppm; format: functional
# [11] = as §1; format: functional; remark: listed apart in the source
# L1210 [12] = experiment: In vivo antitumor activity against mouse L1210 cells at 0.4 mg/kg relative to control; format: functional
# MCF7 = experiment: Cytotoxicity against human MCF7 cells; format: functional; details: for EC50: Homo sapiens, MCF7, read-out: ED50 (the source's name)
# [13] = Antimitotic activity in rat 9ASK cells assessed as reversal of astrocyte formation at 10 ug/mL; format: functional
# [14] = In vivo antitumor activity against mouse 3PS cells at 0.25 mg/kg relative to control; format: functional
# L1210 [15] = experiment: Cytotoxicity against mouse L1210 cells; format: functional; details: read-out: ED50 (the source's name)
# [16] = In vivo antitumor activity against mouse 3PS cells at 1.4 mg/kg relative to control; format: functional
compound,measurement,setting,value
CCCCCCCCCCCC[C@@H](O)[C@H]1CC[C@H]([C@H](O)CCCCC(=O)CCCCC[C@@H](O)CC2=C[C@H](C)OC2=O)O1 [ANNONACINONE],EC50,A549,0.1 µg/mL
same,ED50,[1],1 ×10⁻⁶ ug/ml
same,EC50,HT-29,1 µg/mL
CCCCCCCCCCCC[C@@H](O)[C@H]1CC[C@H]([C@H](O)CCCC[C@H](O)CCCCC[C@@H](O)CC2=CC(C)OC2=O)O1 (stereo not given in full) [ANNONACIN],Activity,Calliphora vicina [2],100%
same,EC50,[3],0.001 µg/mL
same,EC50,A549,0.001 µg/mL
same,ED50,[1],1 ×10⁻⁵ ug/ml
same,inhibition (INH),[4],72%
same,LC50,Artemia,3.3 ppm
same,IC50,Plasmodium falciparum [5],1.51 µg/mL
same,IC90,Plasmodium falciparum [5],74.7 µg/mL
same,IC50,Plasmodium falciparum [6],1.3 µg/mL
same,IC90,Plasmodium falciparum [6],12.4 µg/mL
same,Activity,[7],51%
same,Activity,[8],15%
same,T/C,[9],124%
same,Activity,Calliphora vicina [10],100%
same,Activity,Aedes aegypti,70%
same,T/C,[11],124%
same,EC50,HT-29,3 µg/mL
CCCCCCCCCC[C@H](O)[C@H]1CC[C@H]([C@H]2CC[C@H]([C@H](O)CCCCCCCCCC[C@@H]3CC(CC(C)=O)C(=O)O3)O2)O1 (stereo not given in full) [BULLATACINONE],inhibition (INH),[4],15%
same,LC50,Artemia,0.003 ppm
same,T/C,L1210 [12],144%
CCCCCCCCCC[C@@H](OC(C)=O)[C@H]1CC[C@H]([C@@H](CC[C@@H](OC(C)=O)[C@@H]2CCC(CCCCCCC[C@@H](CC3=C[C@@H](C)OC3=O)OC(C)=O)O2)OC(C)=O)O1 (stereo not given in full) [BULLATALICIN TETRAACETATE],EC50,MCF7,< 0.001 µg/mL
same,EC50,A549,< 0.001 µg/mL
same,EC50,HT-29,1.35 µg/mL
CCCCCCCCCC[C@H](O)[C@H]1CC[C@H]([C@H](O)CC[C@H](O)[C@@H]2CC[C@@H](CCCCCCC[C@@H](O)CC3=C[C@H](C)OC3=O)O2)O1 [BULLATALICIN],EC50,MCF7,2.34 µg/mL
same,EC50,[3],> 10 µg/mL
same,ED50,A549,2.34 ×10⁻⁷ ug/ml
same,inhibition (INH),[4],63%
same,LC50,Artemia,0.154 ppm
same,ED50,HT-29,8.8 ×10⁻⁶ ug/ml
CCCC(O)CCC(O)CCC(O)C1CCC(C2CCC(C(O)CCCCCCCCCCCCCC3=CC(C)OC3=O)O2)O1 (stereo not given) [CHERIMOLINE],ED50,[3],6 ×10⁻¹² ug/ml
same,EC50,A549,0.001 µg/mL
same,EC50,[1],< 0.01 µg/mL
same,LC50,Artemia,1.24 ppm
same,EC50,HT-29,> 0.001 µg/mL
CCCC(O)CCC(O)CCC(O)C1CCC(C2CCC(C(O)CCCCCCCCCCCCCC3CC(C)OC3=O)O2)O1 (stereo not given) [DIHYDROCHERIMOLINE],ED50,[3],2 ×10⁻⁸ ug/ml
same,EC50,A549,0.001 µg/mL
same,EC50,[1],< 0.01 µg/mL
same,LC50,Artemia,4.02 ppm
same,EC50,HT-29,0.001 µg/mL
CCCCCCCCCCCC[C@@H](O)[C@H]1CC[C@H]([C@H](O)CC[C@H](O)[C@@H]2CC[C@@H](CCCCC[C@@H](O)CC3=C[C@H](C)OC3=O)O2)O1 [GIGANTECIN],ED50,MCF7,4.11 ×10⁻⁹ ug/ml
same,ED50,[3],<1 ×10⁻⁵ ug/ml
same,ED50,A549,2.19 ×10⁻⁷ ug/ml
same,ED50,[1],<1 ×10⁻⁵ ug/ml
same,inhibition (INH),[4],83%
same,LC50,Artemia,222 ppm
same,Activity,[13],31%
same,ED50,HT-29,2.68 ×10⁻⁴ ug/ml
CCCCCCCCCCCCCC[C@@H](O)[C@H]1CC[C@H]([C@H](O)CC[C@H](O)CCCCC[C@@H](O)CC2=C[C@H](C)OC2=O)O1 [GONIOTHALAMICIN],Activity,Calliphora vicina [2],100%
same,EC50,[3],< 0.01 µg/mL
same,EC50,[1],< 0.1 µg/mL
same,inhibition (INH),[4],68%
same,LC50,Artemia,37 ppm
same,IC50,Plasmodium falciparum [5],1.59 µg/mL
same,IC90,Plasmodium falciparum [5],23.6 µg/mL
same,IC50,Plasmodium falciparum [6],1.08 µg/mL
same,IC90,Plasmodium falciparum [6],8.23 µg/mL
same,Activity,Aedes aegypti,100%
CCCCCCCCCCCC[C@H](O)[C@@H]1CC[C@@H]([C@@H](O)CCCCC(=O)CCCCCC2CC(CC(C)=O)C(=O)O2)O1 (stereo not given in full) [ISOANNONACINONE],EC50,A549,0.07 µg/mL
same,EC50,[1],0.5 µg/mL
same,EC50,HT-29,0.009 µg/mL
CCCCCCCCCCCC[C@H](O)[C@@H]1CC[C@@H]([C@@H](O)CCCCC(O)CCCCCC2CC(CC(C)=O)C(=O)O2)O1 (stereo not given in full) [ISOANNONACIN],EC50,A549,0.02 µg/mL
same,EC50,[1],3 µg/mL
same,EC50,HT-29,0.002 µg/mL
CCCCCCC(O)CCCC(O)C1CCC(C2CCC(C(O)CCCCCCCCCCCCC3=CC(C)OC3=O)O2)O1 (stereo not given) [ISOROLLINICIN],EC50,[1],0.01 µg/mL
CCCCCCCCCC[C@@H](O)[C@@H]1CC[C@H]([C@H]2CC[C@@H]([C@@H](O)CCCCCCCCCC[C@H](O)CC3=C[C@@H](C)OC3=O)O2)O1 [ROLLINIASTATIN 1],ED50,[1],4.5 ×10⁻⁵ ug/ml
same,T/C,[14],128%
CCCCCCCCC[C@@H](OC(C)=O)[C@H](OC(C)=O)[C@@H]1CC[C@@H]([C@@H]2CC[C@@H]([C@@H](CCCCCCCCCCCCC3=CC(C)OC3=O)OC(C)=O)O2)O1 (stereo not given in full) [ROLLINICIN TRIACETATE],ED50,[1],2.6 ×10⁻⁴ ug/ml
CCCCCCCCC[C@@H](O)[C@@H](O)[C@@H]1CC[C@@H]([C@@H]2CC[C@@H]([C@@H](O)CCCCCCCCCCCCC3=CC(C)OC3=O)O2)O1 (stereo not given in full) [ROLLINICIN],ED50,[1],2.9 ×10⁻⁸ ug/ml
CCCCCC[C@H](O)CCC[C@H](O)[C@H]1CC[C@H]([C@H]2CC[C@H]([C@H](O)CCCCCCCCCCCCC3=C[C@H](C)OC3=O)O2)O1 [SQUAMOCIN],EC50,L1210 [15],0.58 µg/mL
CCCCCCCCCCCC[C@H](O)[C@@H]1CC[C@@H]([C@@H](O)CCCCCC(=O)CCCCC2CC(CC(C)=O)C(=O)O2)O1 (stereo not given in full) [SQUAMONE],LC50,Artemia,2.1 ppm
CCCCCCCCCC[C@@H](O)[C@@H]1CC[C@H]([C@H](O)CC[C@H](O)[C@@H]2CC[C@@H](CCCCCCC[C@@H](O)CC3=C[C@H](C)OC3=O)O2)O1 [SYLVATICIN],EC50,[3],< 0.001 µg/mL
same,EC50,A549,< 0.001 µg/mL
same,LC50,Artemia,26 ppm
same,EC50,HT-29,< 0.001 µg/mL
CN(C)[C@@H]1C(O)=C(C(N)=O)C(=O)[C@@]2(O)C(O)=C3C(=O)c4c(O)cccc4[C@@](C)(O)[C@H]3C[C@@H]12 [TETRACYCLINE],IC50,Plasmodium falciparum [5],5.39 µg/mL
same,IC50,Plasmodium falciparum [6],3.36 µg/mL
CCCCCCCCCC[C@H](OC(C)=O)[C@H]1CC[C@H]([C@H]2CC[C@H]([C@H](O)CCCCCCCCCCCCC3=C[C@H](C)OC3=O)O2)O1 [UVARICIN],T/C,[16],157%
